In general, IC50 refers to the concentration needed to halve the response being measured. As a reminder, the GI50 is the concentration that inhibits growth by half. A low value points to more potent growth inhibition. What is called ED50 is the dose that gives a 50% effect, or the effect in half of the subjects.

For one experiment, the target named is T1, Zinc finger protein GLI1 (Homo sapiens, UniProt P08151).
T1 sequence (P08151 whole entry): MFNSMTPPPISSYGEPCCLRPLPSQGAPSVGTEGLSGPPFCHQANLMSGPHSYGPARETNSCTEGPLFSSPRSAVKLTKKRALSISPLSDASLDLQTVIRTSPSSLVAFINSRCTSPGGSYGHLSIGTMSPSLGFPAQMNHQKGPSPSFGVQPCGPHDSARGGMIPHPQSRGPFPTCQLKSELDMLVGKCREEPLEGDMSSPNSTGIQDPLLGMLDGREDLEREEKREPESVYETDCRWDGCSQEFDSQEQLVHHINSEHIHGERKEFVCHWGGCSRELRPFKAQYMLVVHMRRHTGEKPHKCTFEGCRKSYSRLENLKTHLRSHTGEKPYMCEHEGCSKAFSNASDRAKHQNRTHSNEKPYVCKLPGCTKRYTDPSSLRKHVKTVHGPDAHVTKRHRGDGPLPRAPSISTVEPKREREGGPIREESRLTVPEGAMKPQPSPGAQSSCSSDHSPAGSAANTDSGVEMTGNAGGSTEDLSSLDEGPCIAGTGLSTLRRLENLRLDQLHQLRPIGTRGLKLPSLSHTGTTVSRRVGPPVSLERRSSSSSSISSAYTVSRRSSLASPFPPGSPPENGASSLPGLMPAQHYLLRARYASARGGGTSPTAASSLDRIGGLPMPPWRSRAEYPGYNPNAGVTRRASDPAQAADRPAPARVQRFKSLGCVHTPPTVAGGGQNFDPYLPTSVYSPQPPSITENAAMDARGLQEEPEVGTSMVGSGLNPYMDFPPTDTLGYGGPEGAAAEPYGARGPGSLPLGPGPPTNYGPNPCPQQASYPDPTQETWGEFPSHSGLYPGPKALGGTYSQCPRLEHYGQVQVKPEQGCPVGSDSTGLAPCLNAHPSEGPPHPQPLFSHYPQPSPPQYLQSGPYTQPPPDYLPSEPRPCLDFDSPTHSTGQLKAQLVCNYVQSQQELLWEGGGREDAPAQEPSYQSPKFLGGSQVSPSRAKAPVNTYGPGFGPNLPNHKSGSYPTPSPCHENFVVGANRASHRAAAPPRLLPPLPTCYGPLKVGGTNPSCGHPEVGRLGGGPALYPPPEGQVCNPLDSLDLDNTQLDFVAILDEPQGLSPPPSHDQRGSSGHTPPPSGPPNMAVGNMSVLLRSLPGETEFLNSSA
The experiment can be described thus: Inhibition of Gli1-mediated transcription expressed in human PANC1 cells. Type of experiment: cell-based. Particulars: panc-1.

Experiment [1] concerns BXPC-3. The experiment can be described thus: Growth inhibition of human BxPC3 cells. It counts as functional.
Experiment [2] in a line: Growth inhibition of human L3.6p1 cells. Type of experiment: functional.
Experiment [3] is described as follows: In vivo antitumor activity against human L3.6s1 cells assessed as inhibition of tumor growth. Type of experiment: functional.
A short description of experiment [4]: Growth inhibition of human D283 MED cells. It counts as functional.
For another experiment, the system named is Daoy. The experiment can be described thus: Growth inhibition of human DaOY cells. Type of experiment: functional.
The test system of experiment [5] is BXPC-3. As to the kind of experiment: In vivo antitumor activity against human BxPC3 cells assessed as inhibition of tumor growth. Type of experiment: functional.
The nature of experiment [6]: Growth inhibition of human Panc 05.04 cells. It counts as functional.
Another experiment relates to Mus musculus. As to the kind of experiment: Antitumor activity against transgenic mouse medulloblastoma model with loss of function mutations in Ptch1 and Hic1 gene administered as once daily oral dose. Type of experiment: functional.
The subject of another experiment is PANC-1. The experiment can be described thus: Selectivity for human PANC1 cells over mouse C3H10/T1/2 cells.
The nature of experiment [7]: Selectivity for Gli over Gli2.
Experiment [8] in a line: Antitumor activity against human medulloblastoma cells. It counts as functional. Particulars: Medulloblastoma cell.

For the compound `C=C(C)[C@@H]1CC[C@]2(C(=O)O)CC[C@]3(C)[C@H](CC[C@@H]4[C@@]5(C)CC[C@H](O)C(C)(C)[C@@H]5CC[C@]43C)[C@@H]12` [BETULINIC ACID], at Zinc finger protein GLI1, the half-inhibitory concentration (IC50) was 32000 nM. In other words, the double-digit micromolar range.
Same read-out and setting: the same measure for `C=C(C)[C@@H]1CC[C@]2(C(=O)O)CC[C@]3(C)[C@H](CC[C@@H]4[C@@]5(C)[C@H](C=O)[C@@H](O)C(C)(C)[C@@H]5CC[C@]43C)[C@@H]12` [COLUBRINIC ACID]: 38000 nM.
As to `CCOc1ccc(Nc2nc(-c3c(C)nc4ccccn34)cs2)cc1`, the concentration for 50% growth inhibition (GI50) (in the experiment with BXPC-3 [1]; in experiment [2]; in experiment [4]; in the experiment with Daoy; in [6]) was 3 nM throughout. The “inhibition (INH)” value (in experiment [3]; in the experiment with BXPC-3 [5]) was 30% each time.
In turn, `CC1=C2C[C@H]3[C@@H](CC[C@@H]4CNC(=O)CC[C@@]43C)[C@@H]2CC[C@@]2(C1)O[C@@H]1C[C@H](C)CN[C@H]1[C@H]2C` showed an ED50 in the experiment on Mus musculus of less than 7.5 mg/kg.
`C=C(C)[C@@H]1CC[C@]2(C(=O)O)CC[C@]3(C)[C@H](CC[C@@H]4[C@@]5(C)C[C@@H](O)[C@H](O)C(C)(C)[C@@H]5CC[C@]43C)[C@@H]12` [ALPHITOLIC ACID]: the concentration for half-maximal inhibition (IC50) against Zinc finger protein GLI1 is 42000 nM.
As to `O=C1NCc2c1c1c3ccccc3[nH]c1c1[nH]c3ccccc3c21` [STAUROSPORINONE], the “Selectivity Index” value with PANC-1 amounted to 3.
For `C[C@@]12C[C@H]3OC(=O)[C@@H]1CO[C@]14O[C@]5([C@H]2C1=O)[C@@](O)(CC[C@H]1[C@H]4C[C@H]2O[C@]24CC=CC(=O)[C@]14C)C(=O)O[C@@]35C` [PHYSALIN F], the “Selectivity Index” value in the experiment with PANC-1 amounted to 3. In addition, the Ratio IC50 in [7] amounted to 2.
Taken in the same sequence, the figures for `C[C@]12C(=O)C=CCC1=CC[C@@H]1[C@@H]2CC[C@]2(O)C(=O)O[C@@]3(C)[C@H]4C[C@]5(C)[C@@H](CO[C@@]16O[C@@]32[C@H]5C6=O)C(=O)O4` [PHYSALIN B] were 3 and 2.
`COc1cc(OC)cc(C(=O)Nc2ccc(Cl)c(-c3nc4cc(N(C)C)ccc4[nH]3)c2)c1` showed an IC50 in experiment [8] of 10000 nM.
